Assay results published in patent publication US7176163B1, “Pharmacological effect potentiators for pesticides” (Meija Seika Kaisha, Ltd., priority 2000, dated 2007).

Assays:
[1] = tested on: cotyledon of cucumber (variety: Yotsuba); experiment: Microbicide (Benomyl) absorption enhancement by spraying jasmonic acids; type: in vivo
Method: In the present test, Benlate (registered trademark, manufactured by DuPont Corp., containing 50% of Benomyl as the main component) was used as microbicide. As a test material, cotyledon of cucumber (variety: Yotsuba) was used and absorption amount of the microbicide (hereinafter, referred to as “Benomyl absorption amount”) was measured. To the cucumber on day 10 after the seeding was uniformly sprayed 0.22 ml per individual of 0.1% Benlate solution (0.05% Benomyl containing solution) that contains methyl jasmonate (hereinafeter, abbreviated as “MeJA”) or n-propyl (2-pentyl-3-oxocyclopentyl)acetate, also named n-propyldihydrojasmonic acid (hereinafter, abbreviated as “PDJ”) and the cucumber was placed in a glass-made chamber. MeJA or PDJ was mixed to make 0.001 ppm, 0.01 ppm, 0.1 ppm, 1.0 ppm, or 5.0 ppm based on the Benlate solution amount and applied simultaneously. After sealing the lid of the chamber, the cucumber was cultivated in an air-conditioned room. As a control, similarly Benlate-treated cucumber seedlings were placed in a separate chamber and cultivated.
After two days of cultivation, the cotyledons were cut off and the surfaces of them were washed carefully with a neutral detergent. The cotyledons were ground and extracted with heating. The treatment of extraction solution and quantitation of Benomyl were carried out by high performance liquid chromatography referring to the quantitation method of Benomyl in Residual Pesticide Standards Handbook (Kagaku Kogyo Nippo, 1995, pp843-845) using 2-methylbenzimidazolecarbamate, which is a metabolite of Benomyl, as an indicator. […] As will be apparent from Table 1, enhancement of the absorption of Benomyl by application of MeJA or PDJ was observed.
Tests on microbicide absorption enhancement were performed in the same manner as in Test Example 1 using the following compounds. Common names and abbreviations of each compound are shown in the brackets. The compounds were synthesized in the same manner as in the examples in Japanese Patent Application Laid-open No. Hei 11-140022. • 1. […] (dihydrojasmonic acid: DJA) • 2. allyl (2-pentyl-3-oxocyclopentyl)acetate (allyl dihydrojasmonate: ADJ) • 3. 2-pentenyl (2-pentyl-3-oxocyclopentyl)acetate (dihydrojasmonic acid-2-pentenyl: PEDJ) • 4. 3-butenyl (2-pentyl-3-oxocyclopentyl)acetate (dihydrojasmonic acid-3-butenyl: BEDJ) • 5. 3-butynyl (2-pentyl-3-oxocyclopentyl)acetate (butynyl dihydrojasmonate : BYDJ)
Each compound was mixed so that it occupies 0.01 ppm based on the Benlate solution and given at the same time. Extraction and quantitation were practiced by the methods described in Test Example 1. The results are shown as relative values of Benomyl absorption amount in each lot to that of control. As a result, as will be apparent from Table 6, enhancement of absorption of Benomyl was confirmed.

cucumber powdery mildew = experiment: Powdery mildew preventive effect improvement by methyl jasmonate fumigation; type: in vivo, Sphaeheca fuliginea; settings: MeJA fumigation 25 μl/m^3 after 0.1% Benlate spraying; infection on day 3; control lot (no fumigation) = 100
Method: Cucumber seedlings were cultivated in the same manner as in Test Example 2 and uniformly sprayed with 0.22 ml per individual of 0.1% Benlate solution (0.05% Benomyl containing solution). Thereafter, MeJA fumigation was performed as follows. MeJA Stock solution was charged in an open Petri dish (φ60 mm) to 25 μl/m^3, which was placed in a glass-made chamber and then sealed. On day 3 after the initiation of the fumigation, cucumber powdery mildew was infected in the same manner as in Test Example 3 and powdery mildew plaque number was counted. […] The control lot means a lot in which no MeJA fumigation was performed. Thus, it was confirmed that MeJA fumigation further improved the powdery mildew preventive effect of Benomyl.

cucumber seedlings = experiment: Benomyl absorption enhancement by fumigation of methyl jasmonate; type: in vivo; settings: MeJA fumigation 25 μl/m^3, natural diffusion in sealed chamber; seedlings sprayed with 0.1% Benlate solution
Method: MeJA was applied as follows. MeJA Stock solution was charged in an open Petri dish (φ60 mm) to 25 μl/m^3, which was placed in a glass-made chamber and then sealed and allowed to naturally diffuse. Then, cucumber seedlings uniformly sprayed with 0.22 ml per individual of 0.1% Benlate solution (0.05% Benomyl containing solution) were placed and sealed. This was cultivated in an air-conditioned room. As a control cucumber seedlings that had been similarly treated with Benlate but not fumigated with MeJA were placed in a separate chamber and cultivated. Extraction was made in the same manner as in Test Example 1 and comparative quantitation in comparison with control lot was made.

[2] = tested on: cucumber powdery mildew (Sphaeheca fuliginea); experiment: Powdery mildew preventive effect improvement by PDJ spraying; type: in vivo; settings: infection 3 days after application, plaques counted after 10 days, control lot (Benlate without PDJ) = 100
Method: Cucumber seedlings were cultivated in the same manner as in Test Example 1 and uniformly sprayed with 0.22 ml per individual of 0.1% Benlate solution (0.05% Benomyl containing solution) mixed with PDJ in an amount of 0.01 ppm or 0.1 ppm based on the amount of Benlate solution. After 3 days from the application of Benlate solution, a spore suspension of cucumber powdery mildew (Sphaeheca fuliginea) prepared to 1.0×10^5 cells/ml was sprayed (0.2 ml per individual) on a first true leaf of each seedling and the seedlings were cultivated in a glass-made chamber. After 10 days, powdery mildew plagues were counted. […] Morbidity=(Average of powdery mildew plaque number on cucumber first true leaf in each treated lot)/(Average of powdery mildew plaque number on cucumber first true leaf in control lot)×100
Here, the control lot means a lot that is treated with a Benlate solution containing no PDJ. Thus, it was confirmed that PDJ spraying further increased the powdery mildew preventive effect of Benomyl.

Poa annua = experiment: Herbicidal effect enhancement by PDJ spraying; type: in vivo; settings: Herbie liquid diluted 1/1000 plus PDJ 0.01 ppm; sprayed 5 ml/15 individuals; dry weight of above-ground part after 2 weeks
Method: Seeds of Poa annua were sown on commercially available cultivation soil for raising seedlings and after about 2 weeks of cultivation, seedlings of about 6 cm in height were obtained. For each lots, tests were performed in 5 series each with 3 individuals. The herbicide used was Herbie liquid (registered trademark of Meiji Seika Kaisha Limited, 18% Bialaphos containing solution) diluted to 1/1000. PDJ was used as a pharmacological action enhancer and this was added in an amount of 0.01 ppm based on the liquid amount of the herbicide. Application to the plant body was performed by spraying in an amount of 5 ml/15 individuals. After 2 weeks from the application, the dry weight of above-ground part was measured and mortality was calculated in accordance with the following equation and the effect was compared. […] Wilting Mortality={1−(growth amount of applied lot/growth amount of non-applied lot)}×100

[3] = Test Example 6: 0.01 ppm based on the Benlate solution, given at the same time
[4] = 0.001 ppm in 0.1% Benlate solution, sprayed simultaneously, cucumber cotyledons after two days
[5] = 0.01 ppm in 0.1% Benlate solution, sprayed simultaneously, cucumber cotyledons after two days
[6] = 0.1 ppm in 0.1% Benlate solution, sprayed simultaneously, cucumber cotyledons after two days
[7] = 1.0 ppm in 0.1% Benlate solution, sprayed simultaneously, cucumber cotyledons after two days

For `C=CCOC(=O)CC1CCC(=O)C1CCCCC` (stereo not drawn) [ADJ, allyl (2-pentyl-3-oxocyclopentyl)acetate], which “Relative value (%) of Benomyl absorption amount to that of control lot” value (from here on “Relative value (%)”) [1, 3] is on record?
Its value is 145%.

Which “Powdery Mildew Morbidity” value (cucumber powdery mildew) does the source give for `CC/C=C\CC1C(=O)CCC1CC(=O)OC` (stereo not drawn) [MeJA] here?
The value was 76.

What about the “Relative value (%)” value (cucumber seedlings) of the same compound?
Its value is 144%.

What about the “Relative value (%)” value [1, 4] of the same compound?
Its value is 96%.

What about the “Relative value (%)” value [1, 5] of the same compound?
The value was 124%.

And the “Relative value (%)” value [1, 6]?
Its value is 127%.

What about the “Relative value (%)” value [1, 7] of the same compound?
The value was 142%.

And the “Relative value (%)” value ([1]; 5.0 ppm in 0.1% Benlate solution, sprayed simultaneously, cucumber cotyledons after two days)?
The value was 113%.

`C#CCCOC(=O)CC1CCC(=O)C1CCCCC` (stereo not drawn) [BYDJ, 3-butynyl (2-pentyl-3-oxocyclopentyl)acetate] was tested. Which “Relative value (%)” value [1, 3] did it give?
The value was 130%.

Which “Relative value (%)” value [1, 3] does the source give for `CCC=CCOC(=O)CC1CCC(=O)C1CCCCC` (stereo not drawn) [PEDJ, 2-pentenyl (2-pentyl-3-oxocyclopentyl)acetate] here?
The value was 130%.

`C=CCCOC(=O)CC1CCC(=O)C1CCCCC` (stereo not drawn) [BEDJ, 3-butenyl (2-pentyl-3-oxocyclopentyl)acetate] was tested. Which “Relative value (%)” value [1, 3] did it give?
Its value is 155%.

For `CCCCCC1C(=O)CCC1CC(=O)OCCC` (stereo not drawn) [PDJ, n-propyl (2-pentyl-3-oxocyclopentyl)acetate], which “Powdery Mildew Morbidity” value ([2]; PDJ 0.01 ppm in 0.1% Benlate solution) is on record?
The value was 70.

And the “Powdery Mildew Morbidity” value ([2]; PDJ 0.1 ppm in 0.1% Benlate solution)?
Its value is 88.

And the Wilting Mortality (Poa annua)?
Its Wilting Mortality is 81.2%.

And the “Relative value (%)” value [1, 4]?
Its value is 103%.

What about the “Relative value (%)” value [1, 5] of the same compound?
The value was 136%.

What about the “Relative value (%)” value [1, 6] of the same compound?
Its value is 118%.

What about the “Relative value (%)” value [1, 7] of the same compound?
The value was 110%.
